In patent US20250282797A1, “CRYSTALLINE FORM OF FGFR4 INHIBITOR AND USE THEREOF” (CSPC ZHONGQI PHARMACEUTICAL TECHNOLOGY (SHIJIAZHUANG) CO., …, priority 2022, published 2025):
In brackets after ≈: the same amount, converted by molar mass. Where two headings read alike, the source gives them in different places.

Assays:
Grinding stability study = format: physicochemical
Solid stability study = format: physicochemical; conditions: 7 days
Protocol: Test Example 3: Solid Stability Study
The crystalline form I (5 mg) obtained in Example 1 and the crystalline form II (5 mg) obtained in Example 22 were weighed into sample bottles; the samples were subjected to solid-state stability studies after being placed under the conditions of 60° C. (closed) and 40° C./75% RH (open); and sampling was performed on day 7 for XRPD characterization.

Solubility test = format: physicochemical; conditions: 200 rpm; for solubility at 24 h: 37 °C, thermodynamic from solid; for FeSSIF Solubility: FeSSIF (pH about 5.00)
Protocol: Test Example 2: Solubility Test
The crystalline form I sample (5 mg) obtained in Example 1 and the crystalline form II sample (5 mg) obtained in Example 22 were added to a sample bottle, and 1 mL of SGF (simulated gastric fluid), FaSSIF (fasted state simulated intestinal fluid), FeSSIF (fed state simulated intestinal fluid), and water were separately added. The resulting suspensions were shaken at 37° C. at a rotation speed of 200 rpm for 24 h and filtered. The resulting filtrates were subjected to the concentration test, and the resulting solids were subjected to XRPD characterization.

[1] = Dynamic vapor sorption/desorption (DVS) analysis; format: physicochemical
Protocol: 2. Dynamic Vapor Sorption/Desorption (DVS) Analysis
Instrument: DVS Intrinsic plus (SMS, UK).
Method: a sample is placed in a tared sample basket, the weight of the sample is automatically measured, and the sample is dried at 40° C./0% RH until dm/dt is less than 0.002% and then cooled to 25° C.

[2] = Pharmacokinetic study in rats; format: in vivo, SD rats; conditions: rat
Description: Test Example 6: Pharmacokinetic Study of Compound of Formula B in Rats
Assay drug: the compound of formula B obtained in Preparation Example 1.
Instrument: LC-MS/MS-13 (TQ5500, Triple quad), with the operation software of Xcalibur2.0.7 (Thermo Fisher Scientific, USA); LC-10ADvp liquid chromatography system (Shimadzu, Japan); Shimadzu LC-20AD liquid chromatography pump; Shimadzu CBM-20A system controller; Shimadzu CTO-20A column oven; and SIL-20AC autosampler (Shimadzu, Japan). Chromatographic column: Agilent Zorbax SB-CN 3.5 u 100×2.1 mm; column temperature: 40° C.; mobile phase A: 0.1% aqueous formic acid solution; mobile phase B: a 0.1% solution of formic acid in acetonitrile; flow rate: 0.60 mL/min. The gradient elution was performed as follows: from 0 to 0.5 min, the mobile phase B was increased from 1% to 90%; from 0.5 to 1.2 min, 90% of the mobile phase B was maintained; starting from 1.21 min, the mobile phase B was changed back to 1%; and elution was stopped at 1.60 min.
Animals: 6 male SD rats were supplied by Shanghai Sippe-Bk Lab Animal Co., Ltd. The body weight range was 180-220 g. After purchase, the rats were bred in the laboratory of the experimental animal center for 2 days for later use. The rats were fasted 10-14 h before administration and 4 h after administration, and given ad libitum access to water during the assay. The rats were randomly divided into two groups, with 3 rats in each group. One group was intravenously injected, and the other group was intragastrically administered.
Preparation of intragastric administration solution: the compound of formula B (4.85 mg) was precisely weighed out, and a mixed aqueous solution (9.70 mL) containing 0.5% methylcellulose and 0.4% Tween-80 was added, followed by sonication at room temperature to prepare a 0.5 mg/mL suspension. Preparation of intravenous injection solution: the compound of formula B (2.79 mg) was precisely weighed out, and DMSO (21 μL), PEG200 (2.79 mL), and normal saline (4.164 mL) were added to prepare a 0.4 mg/mL solution.
Blood was collected in the intragastric administration group about 0.25 h before administration and 0.25 h, 0.5 h, 1 h, 1.5 h, 2 h, 4 h, 6 h, 8 h, 12 h, and 24 h after administration. Blood was collected in the intravenous administration group about 0.25 h before administration and 0.083 h, 0.25 h, 0.5 h, 0.75 h, 1 h, 2 h, 4 h, 8 h, 12 h, and 24 h after administration. The blood was collected from the jugular vein or other venipuncture at 0.25 mL/time point and anticoagulated with EDTA-K2 or EDTA-K3. The collected blood was placed on the ice. After the blood samples were collected, plasma was separated by centrifugation (centrifugation conditions: 6800 g/min, 6 min, 2-8° C.). The collected plasma samples were stored in a refrigerator at −80° C. for testing prior to analysis.
The compound of the formula B was accurately weighed out and formulated into different concentrations, and quantitative analysis was performed on a mass spectrometer to establish a standard curve. The concentration of the compound of formula B in the plasma described above was then measured to obtain the concentrations of the compound of formula B at different time points. All the measured data were collected and processed by relevant software, and pharmacokinetic parameters (mainly including kinetic parameters Tmax, T1/2, Cmax, AUC0-t, etc.) were calculated by adopting a statistical moment method. […]

[3] = Competitive suspension experiments; format: physicochemical; conditions: for XRPD result (room temperature): 25° C.
Protocol: Test Example 1: Competitive Suspension Experiments
Equal amounts (6 mg) of the crystalline form I sample of the compound of formula B obtained in Example 1, the crystalline form II sample of the compound of formula B obtained in Example 22, and the crystalline form III sample of the compound of formula B obtained in Example 33 were mixed. The resulting mixture was separately stirred at room temperature (25° C.) and at a high temperature (50° C.) for 24 h, 2 days, and 7 days in the following solvents, and the remaining solids were subjected to the XRPD test.

[4] = male, SD, plasma, iv, intravenously injected, 2.0 mg/kg
[5] = male, SD, plasma, po, intragastrically administered, 5 mg/kg
[6] = Dichloromethane/acetonitrile (V:V = 1:2), 0.5 mL, 24 h
[7] = Dichloromethane/acetonitrile (V:V = 1:2), 0.5 mL, 7 days
[8] = Dichloromethane/ethanol (V:V = 1:4), 0.5 mL, 24 h
[9] = Dichloromethane/ethanol (V:V = 1:4), 0.5 mL, 7 days
[10] = N,N-Dimethylformamide, 0.5 mL, 24 h
[11] = N,N-Dimethylformamide, 0.5 mL, 7 days
[12] = Water/acetone (V:V = 1:1), 1 mL, 2 days
[13] = Water/acetone (V:V = 2:8), 1 mL, 2 days
[14] = Water/acetone (V:V = 5:95), 1 mL, 2 days

N#Cc1cnc(NC(=O)N2CCCc3cc(CN4CCN5CCC[C@H]5C4=O)c(C=O)nc32)cc1NC1CC1 [Crystalline form I]
Grinding stability result (crystalline form, XRPD) (Grinding stability study; Solid grinding, 2 min): unchanged | Grinding stability result (crystalline form, XRPD) (Grinding stability study; Solid grinding, 5 min): unchanged, but the crystallinity | Grinding stability result (crystallinity, XRPD) (Grinding stability study; Solid grinding, 5 min): became worse | Grinding stability result (crystalline form, XRPD) (Grinding stability study; Solvent grinding, Acetone): unchanged | Grinding stability result (crystalline form, XRPD) (Grinding stability study; Solvent grinding, Acetonitrile): unchanged | Grinding stability result (crystalline form, XRPD) (Grinding stability study; Solvent grinding, Dichloromethane): unchanged | Grinding stability result (crystalline form, XRPD) (Grinding stability study; Solvent grinding, Ethanol): unchanged | Grinding stability result (crystalline form, XRPD) (Grinding stability study; Solvent grinding, Methanol): unchanged | XRPD result at 40° C./75% RH (open) (Solid stability study): Unchanged | XRPD result at 60° C. (closed) (Solid stability study): Unchanged | solubility at 24 h (Solubility test; FaSSIF (fasted state simulated intestinal fluid), pH 6.5, fassif, FaSSIF (pH about 6.50), read-out: FaSSIF Solubility): 26 µg/mL (≈ 50.5 µM) | FeSSIF Solubility (Solubility test; 37° C., 24 h): 14 µg/mL | solubility at 24 h (Solubility test; SGF (simulated gastric fluid), pH 1.2, simulated gastric fluid, SGF (pH about 1.20), read-out: SGF Solubility): > 5000 µg/mL | Water Solubility (Solubility test; 37° C., 24 h): 3.1 µg/mL | hygroscopic weight gain ([1]; DVS, 0-90% RH, 25° C.): about 0.24% | hygroscopicity ([1]; DVS, 0-90% RH, 25° C.): almost non-hygroscopic | crystalline form of the sample after the DVS test ([1]; XRPD after DVS): not changed

N#Cc1cnc(NC(=O)N2CCCc3cc(CN4CCN5CCC[C@@H]5C4=O)c(C=O)nc32)cc1NC1CC1 [compound of formula C]
AUC(0-t) [2, 4]: 2550 ng·h/mL | clearance [2, 4]: 13.4 mL/min/kg | half-life [2, 4]: 1.23 h | bioavailability ([2]; male, SD, plasma, oral, intragastric 5 mg/kg vs intravenous 2.0 mg/kg, read-out: absolute bioavailability): 35.3% | AUC(0-t) [2, 5]: 2250 ng·h/mL | Cmax [2, 5]: 597 ng/mL | half-life [2, 5]: 1.24 h | Tmax ([2]; male, SD, plasma, po, intragastrically administered, 5 mg/kg, read-out: time at which the plasma concentration reached the peak value (Tmax)): 2.5 h | volume distribution ([2]; intravenously injected, 2.0 mg/kg): 0.973 L/kg

N#Cc1cnc(NC(=O)N2CCCc3cc(CN4CCN5CCC[C@H]5C4=O)c(C=O)nc32)cc1NC1CC1 [Crystalline form II]
XRPD result at 40° C./75% RH (open) (Solid stability study): Unchanged | XRPD result at 60° C. (closed) (Solid stability study): Unchanged | FaSSIF Solubility (Solubility test; FaSSIF (pH about 6.50), 37° C., 24 h): 19 µg/mL | FeSSIF Solubility (Solubility test; 37° C., 24 h): 5.5 µg/mL | SGF Solubility (Solubility test; SGF (pH about 1.20), 37° C., 24 h): >5000 µg/mL | Water Solubility (Solubility test; 37° C., 24 h): 1.5 µg/mL

N#Cc1cnc(NC(=O)N2CCCc3cc(CN4CCN5CCC[C@H]5C4=O)c(C=O)nc32)cc1NC1CC1
XRPD result (room temperature) [3, 6]: form I + II | XRPD result (50° C.) [3, 6]: form I + II | XRPD result (room temperature) [3, 7]: form I | XRPD result (50° C.) [3, 7]: form I | XRPD result (room temperature) [3, 8]: form I + II | XRPD result (50° C.) [3, 8]: form I + II | XRPD result (room temperature) [3, 9]: form I | XRPD result (50° C.) [3, 9]: form I | XRPD result (room temperature) [3, 10]: form I + II | XRPD result (50° C.) [3, 10]: form I + II | XRPD result (room temperature) [3, 11]: form I | XRPD result (50° C.) [3, 11]: form I | XRPD result (room temperature) ([3]; Water, 0.5 mL, 7 days): form I + II | XRPD result (50° C.) ([3]; Water, 0.5 mL, 7 days): form I + II | XRPD result (room temperature) [3, 12]: form I + II | XRPD result (50° C.) [3, 12]: form I | XRPD result (room temperature) [3, 13]: form I + II | XRPD result (50° C.) [3, 13]: form I | XRPD result (room temperature) [3, 14]: form I + II | XRPD result (50° C.) [3, 14]: form I
